Experimental data as given in US20110152267A1, “Compositions and Methods for Treating Hyperproliferative Disorders” (Texas Tech University System, priority 2009, published 2011).

What was measured:
Format in all cases: cell-based, human
[1] = tested on: U-118 Glioblastoma cell line; experiment: DIMSCAN cytotoxicity, fenretinide + L-threo-sphinganines 3:1 (Example B5); set-up: key to CI (Combination Index): CI<0.9 synergy, 0.9-1.1 additive, >1.1 antagonistic; conditions: U-118 MG, 96 h
Protocol: (§1) Cytotoxicity Assay—Once again, cytotoxicity is determined using the DIMSCAN assay system (R. Proffitt et al., Cytometry 24, 204-213 (1996); T. Frgala et al., Mol Cancer Ther. 6:886-97, 2007). The system employs digital imaging microscopy to quantify viable cells, which selectively accumulate fluorescein diacetate to become brightly fluorescent. The system is capable of measuring cytotoxicity over a 4-5 log dynamic range by quenching the residual fluorescence of dead and dying cells with eosin Y and quantifying the total fluorescence of viable cells using digital thresholding. Measured fluorescence is directly proportionate to the number of viable cells. A comparison of the total fluorescence of a drug-treated cell population to the fluorescence of a similar number of untreated cells yields a survival fraction. In brief, 2000 to 10,000 cells/well (depending on size and growth rates) are replicate plated into 60 wells of a 96-well tissue culture plate in 0.1 mL of whole medium and allowed to attach overnight. Drug(s) are then added in 0.05 mL of whole medium to the final concentrations indicated. Drugs (fenretinide, and various chain length L-threo-sphinganines) were tested both as single agents and in a 3:1 ratio of fenretinide:sphinganine. C18-L-threo-sphinganine, or “safingol,” was also tested and results shown for reference. There are 12 wells treated per drug concentration. Twelve wells receive drug vehicle-only to the appropriate final concentration and serve as controls for the plate. Cells are incubated for 96 hours at 37° C. in ambient air with 5% CO2. Fluorescein diacetate is then added to each well in 0.05 mL media to a final concentration of 8 microgram/mL. Cells are incubated for a further 15 minutes at 37° C. and 0.03 mL of 0.5% eosin Y is added to each well. Total fluorescence of viable cells is then measured by digital imaging microscopy. Results were graphed as the ratio of the fluoresecence of drug-treated wells to non-drug treated control wells (i.e., Survival Fraction). All tests were performed at least twice. Representative results are shown.
(§2) The Combination Index (CI) is a term to describe mathematical modeling of the pharmacologic effects on cytotoxicity (cell death) of two drugs in combination based. Cytotoxic “synergy” is defined as a cell death affect which is greater than would be expected from a simple product of the single agent cytotoxicities alone (i.e. an “additive” effect). By Chou-Talalay analysis, a CI<0.9 on a Fraction Affected (“Fa”, i.e. fraction of cells killed) indicates synergy, with smaller numbers indicating greater synergy; a CI of 0.9-1.1 signifies an additive or near-additive effect; and a CI>1.1 means the drug combination is antagonistic.
Fenretinide and L-threo-sphinganines tested in human Glioblastoma (brain cancer) cell line, U-118.

[2] = tested on: A-549 lung adenocarcinoma cell line; experiment: DIMSCAN cytotoxicity, fenretinide + L-threo-sphinganines 3:1 (Example B13); conditions: 96 h
Protocol: as §1, §2
Fenretinide and L-threo-sphinganines tested in human lung adenocarcinoma (lung cancer) cell line, A-549.

[3] = tested on: PC-3 prostate adenocarcinoma cell line; experiment: DIMSCAN cytotoxicity, fenretinide + L-threo-sphinganines 3:1 (Example B17)
Protocol: as §1, §2
Fenretinide and L-threo-sphinganines tested in human prostate adenocarcinoma (prostate cancer) cell line, PC-3.

[4] = tested on: RPMI-8226 Multiple Myeloma cell line; experiment: DIMSCAN cytotoxicity, fenretinide + L-threo-sphinganines 3:1 (Example B2); conditions: 96 h
Protocol: as §1, §2
Fenretinide and L-threo-sphinganines tested in human Multiple Myeloma (a cancer of the blood and bone marrow) cell line, RPMI-8226.

[5] = tested on: A-2058 melanoma cell line; experiment: DIMSCAN cytotoxicity, fenretinide + L-threo-sphinganines 3:1 (Example B11); conditions: 96 h
Protocol: as §1, §2
Fenretinide and L-threo-sphinganines tested in human melanoma (skin cancer) cell line, A-2058.

[6] = 4-HPR 1.5 μM + L-threo-sphinganine 0.5 μM
[7] = 4-HPR 3 μM + L-threo-sphinganine 1 μM
[8] = 4-HPR 6 μM + L-threo-sphinganine 2 μM
[9] = 4-HPR 9 μM + L-threo-sphinganine 3 μM

Row | SMILES | CI (Combination Index) [1, 6] | Fa (fraction affected) [1, 6] | CI (Combination Index) [1, 7] | Fa (fraction affected) [1, 7] | CI (Combination Index) [1, 8] | Fa (fraction affected) [1, 8] | CI (Combination Index) [1, 9] | Fa (fraction affected) [1, 9] | CI (Combination Index) [2, 6] | Fa (fraction affected) [2, 6] | CI (Combination Index) [2, 7] | Fa (fraction affected) [2, 7] | CI (Combination Index) [2, 8] | Fa (fraction affected) [2, 8] | CI (Combination Index) [2, 9] | Fa (fraction affected) [2, 9] | CI [3, 6] | Fa [3, 6] | CI [3, 7] | Fa [3, 7] | other results
1 | CCCCCCCCCCCC[C@H](O)[C@@H](N)CO [C15] | 0.4 | 0.371 | 0.5 | 0.577 | 0.4 | 0.847 | 0.1 | 0.989 | 1.9 | 0.000 | 2.1 | 0.000 | 0.9 | 0.044 | 0.8 | 0.342 | 0.6 | 0.200 | 0.9 | 0.287 | CI [3, 8]: 1.2; Fa [3, 8]: 0.417; CI [3, 9]: 1.0; Fa [3, 9]: 0.621; CI (Combination Index) [4, 6]: 1.0; Fa (fraction affected) [4, 6]: 0.518; CI (Combination Index) [4, 7]: 1.1; Fa (fraction affected) [4, 7]: 0.75; CI (Combination Index) [4, 8]: 0.5; Fa (fraction affected) [4, 8]: 0.978; CI (Combination Index) [4, 9]: 0.2; Fa (fraction affected) [4, 9]: 0.998; CI (Combination Index) [5, 6]: 0.5; Fa (fraction affected) [5, 6]: 0.053; CI (Combination Index) [5, 7]: 0.9; Fa (fraction affected) [5, 7]: 0.106; CI (Combination Index) [5, 8]: 1.6; Fa (fraction affected) [5, 8]: 0.262; CI (Combination Index) [5, 9]: 1.7; Fa (fraction affected) [5, 9]: 0.867
2 | CCCCCCCCCCCCCCCCCC[C@H](O)[C@@H](N)CO [C21] | 1.3 | 0.588 | 1.5 | 0.836 | 0.6 | 0.995 | 0.5 | 0.999 | 0.9 | 0.078 | 2.6 | 0.044 | 0.8 | 0.51 | 0.4 | 0.972 | 1.7 | 0.215 | 1.4 | 0.350 | CI [3, 8]: 1.6; Fa [3, 8]: 0.479; CI [3, 9]: 0.9; Fa [3, 9]: 0.738; CI (Combination Index) [4, 6]: 1.2; Fa (fraction affected) [4, 6]: 0.517; CI (Combination Index) [4, 7]: 1.6; Fa (fraction affected) [4, 7]: 0.722; CI (Combination Index) [4, 8]: 1.6; Fa (fraction affected) [4, 8]: 0.955; CI (Combination Index) [4, 9]: 1.1; Fa (fraction affected) [4, 9]: 0.999; CI (Combination Index) [5, 6]: 0.7; Fa (fraction affected) [5, 6]: 0.016; CI (Combination Index) [5, 7]: 1.4; Fa (fraction affected) [5, 7]: 0.016; CI (Combination Index) [5, 8]: 1.9; Fa (fraction affected) [5, 8]: 0.333; CI (Combination Index) [5, 9]: 1.9; Fa (fraction affected) [5, 9]: 0.955
